# Source: ChEMBL document CHEMBL1158254, “HIV inhibitory natural products. 26. Quinoline alkaloids from Euodia roxburghiana” (J Nat Prod, 1996)
# The source made the active and inactive calls. The rule behind the calls is not given here.
# Columns and labels:
# [1] = test system: Human immunodeficiency virus 1; experiment: Antiviral activity against HIV1 infected in CEM-SS cells assessed as virus-induced cytopathic effect by XTT assay; assay type: functional, organism-based; conditions: for IC50: Human immunodeficiency virus 1, CEM-SS
# [2] = molecular target: Human immunodeficiency virus type 1 reverse transcriptase (Human immunodeficiency virus 1, UniProt Q72547); experiment: Inhibition of HIV1 reverse transcriptase
IC50 [2],SMILES,Activity [1],IC50 [1]
,COc1c2ccc(OCC[C@H](C)O)cc2nc2occc12,inactive,
8 µM,CC(C)=CCOc1c(CC=C(C)C)c(O)nc2ccccc12,,26.9 µM
,COC(=O)[C@@H](C)CCOc1ccc2c(OC)c3ccoc3nc2c1,inactive,
,COC(=O)/C(C)=C/COc1ccc2c(OC)c3ccoc3nc2c1,inactive,
12 µM,C=CC(C)(C)C1(CC=C(C)C)C(=O)Nc2ccccc2C1=O (configuration not stated) [BUCHAPINE],,29 µM
